According to patent US20230322756A1, “FUSED IMIDAZOLE DERIVATIVE, PREPARATION METHOD THEREFOR, AND MEDICAL USE THEREOF” (JIANGSU HENGRUI MEDICINE CO., LTD., priority 2020, published 2023):
pIC50: −log10 of the molar value.

Assays:
CYP2C19 = CYP2C19 (Homo sapiens (Human), UniProt P33261); assay: Inhibition of human liver microsome CYP450 enzyme, CYP2C19 (S)-mephenytoin site; type: in vitro ADME; details: human liver microsomes, probe substrate (S)-mephenytoin
Protocol: (§1) I. Materials and Instruments • 1. Phosphate buffered saline (20×PBS, purchased from Sangon); • 2. NADPH (ACROS, A2646-71-1); • 3. Human liver microsome (Corning Gentest, Cat No. 452161, Lot No. 905002, Donor35); • 4. ABI QTrap 4000 LC-MS System (AB Sciex); • 5. ZORBAX Extend-C18, 3×50 mm, 3.5 μm (Agilent, USA); • 6. CYP probe substrate.
(§2) An appropriate amount of human liver microsome stock solution (20 mg/mL) was diluted to obtain a 0.25 mg/mL microsome solution with 7.5 mM MgCl2 solution for later use (prepared right before use).
(§3) b. An appropriate amount of the stock solution was precisely pipetted, and diluted into series solution I at the concentrations of 10 mM, 3 mM, 1 mM, 0.3 mM, 0.03 mM and 0.003 mM with an appropriate amount of DMSO solution. An appropriate amount of the above series solution I was precisely pipetted, and diluted to obtain series solution II at the concentrations of 3 mM, 1 mM, 0.3 mM, 0.1 mM, 0.03 mM, 0.003 mM and 0.0003 mM with an appropriate amount of acetonitrile. An appropriate amount of the above series solution II was precisely pipetted, and diluted with PBS to obtain a working solution at the concentrations of 150 μM, 50 μM, 15 μM, 5 μM, 1.5 μM, 0.15 μM and 0.015 μM for later use.
(§4) 3. Procedures • 1) 40 μL of human liver microsome solution (0.25 mg/mL), 20 μL of probe substrate solution and 20 μL of test compound solution were precisely pipetted into a 96-well plate and pre-incubated for 5 min under a water bath at 37° C. • 2) After 5 min of pre-incubation, the mixture was taken out, 20 μL of 5 mM NADPH solution was added to initiate the reaction, and the resulting mixture was incubated for 30 min under a water bath at 37° C. […]
(§5) The values were calculated by Graphpad Prism to obtain the IC50 values for the inhibition of drugs on CYP1A2 phenacetin, CYP2C19 (S)-mephenytoin and CYP3A4M midazolam sites of metabolism in human liver microsomes, as shown in Table 7.

CYP1A2 = CYP1A2 (Homo sapiens (Human), UniProt P05177); assay: Inhibition of human liver microsome CYP450 enzyme, CYP1A2 phenacetin site; type: in vitro ADME; details: human liver microsomes, probe substrate phenacetin
Sequence of CYP1A2 (P05177 whole entry): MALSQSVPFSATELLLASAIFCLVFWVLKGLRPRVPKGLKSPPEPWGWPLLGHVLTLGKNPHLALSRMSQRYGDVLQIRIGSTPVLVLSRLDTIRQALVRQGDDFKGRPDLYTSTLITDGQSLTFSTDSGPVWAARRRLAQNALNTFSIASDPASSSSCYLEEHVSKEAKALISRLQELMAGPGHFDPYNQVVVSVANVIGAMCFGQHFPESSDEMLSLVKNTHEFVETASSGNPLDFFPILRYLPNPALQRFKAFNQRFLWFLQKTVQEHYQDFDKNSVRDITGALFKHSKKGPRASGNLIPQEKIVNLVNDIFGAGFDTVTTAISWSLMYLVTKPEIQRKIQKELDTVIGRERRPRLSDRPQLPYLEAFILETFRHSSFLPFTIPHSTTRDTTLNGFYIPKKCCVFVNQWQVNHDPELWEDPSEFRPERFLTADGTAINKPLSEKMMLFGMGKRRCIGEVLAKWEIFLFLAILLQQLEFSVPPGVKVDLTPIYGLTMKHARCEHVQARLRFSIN
Protocol: as §1, §2, §3, §4, §5

CYP3A4M = CYP3A4M (Homo sapiens (Human), UniProt P08684); assay: Inhibition of human liver microsome CYP450 enzyme, CYP3A4M midazolam site; type: in vitro ADME; details: human liver microsomes, probe substrate midazolam
Sequence of CYP3A4M (P08684 whole entry): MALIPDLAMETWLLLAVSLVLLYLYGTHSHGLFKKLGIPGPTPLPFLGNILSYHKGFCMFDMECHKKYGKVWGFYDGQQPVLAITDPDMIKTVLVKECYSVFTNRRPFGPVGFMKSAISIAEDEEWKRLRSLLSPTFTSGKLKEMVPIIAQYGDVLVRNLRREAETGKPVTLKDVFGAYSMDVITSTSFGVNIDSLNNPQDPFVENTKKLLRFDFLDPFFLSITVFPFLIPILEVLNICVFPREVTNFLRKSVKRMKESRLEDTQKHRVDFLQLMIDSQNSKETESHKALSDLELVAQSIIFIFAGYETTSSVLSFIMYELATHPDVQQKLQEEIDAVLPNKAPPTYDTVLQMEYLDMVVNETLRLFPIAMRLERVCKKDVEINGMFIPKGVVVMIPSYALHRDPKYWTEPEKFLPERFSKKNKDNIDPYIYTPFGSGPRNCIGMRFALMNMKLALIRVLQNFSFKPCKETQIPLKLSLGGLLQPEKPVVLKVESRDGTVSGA
Protocol: as §1, §2, §3, §4, §5

hERG potassium channel = hERG potassium channel (Homo sapiens (Human), UniProt Q12809); assay: Blocking effect on hERG potassium currents, manual patch-clamp in CHO cells stably expressing hERG channel; type: cell-based; details: read-out: IC50 for the blocking effect on the hERG potassium ion channel
Sequence of hERG potassium channel (Q12809 whole entry): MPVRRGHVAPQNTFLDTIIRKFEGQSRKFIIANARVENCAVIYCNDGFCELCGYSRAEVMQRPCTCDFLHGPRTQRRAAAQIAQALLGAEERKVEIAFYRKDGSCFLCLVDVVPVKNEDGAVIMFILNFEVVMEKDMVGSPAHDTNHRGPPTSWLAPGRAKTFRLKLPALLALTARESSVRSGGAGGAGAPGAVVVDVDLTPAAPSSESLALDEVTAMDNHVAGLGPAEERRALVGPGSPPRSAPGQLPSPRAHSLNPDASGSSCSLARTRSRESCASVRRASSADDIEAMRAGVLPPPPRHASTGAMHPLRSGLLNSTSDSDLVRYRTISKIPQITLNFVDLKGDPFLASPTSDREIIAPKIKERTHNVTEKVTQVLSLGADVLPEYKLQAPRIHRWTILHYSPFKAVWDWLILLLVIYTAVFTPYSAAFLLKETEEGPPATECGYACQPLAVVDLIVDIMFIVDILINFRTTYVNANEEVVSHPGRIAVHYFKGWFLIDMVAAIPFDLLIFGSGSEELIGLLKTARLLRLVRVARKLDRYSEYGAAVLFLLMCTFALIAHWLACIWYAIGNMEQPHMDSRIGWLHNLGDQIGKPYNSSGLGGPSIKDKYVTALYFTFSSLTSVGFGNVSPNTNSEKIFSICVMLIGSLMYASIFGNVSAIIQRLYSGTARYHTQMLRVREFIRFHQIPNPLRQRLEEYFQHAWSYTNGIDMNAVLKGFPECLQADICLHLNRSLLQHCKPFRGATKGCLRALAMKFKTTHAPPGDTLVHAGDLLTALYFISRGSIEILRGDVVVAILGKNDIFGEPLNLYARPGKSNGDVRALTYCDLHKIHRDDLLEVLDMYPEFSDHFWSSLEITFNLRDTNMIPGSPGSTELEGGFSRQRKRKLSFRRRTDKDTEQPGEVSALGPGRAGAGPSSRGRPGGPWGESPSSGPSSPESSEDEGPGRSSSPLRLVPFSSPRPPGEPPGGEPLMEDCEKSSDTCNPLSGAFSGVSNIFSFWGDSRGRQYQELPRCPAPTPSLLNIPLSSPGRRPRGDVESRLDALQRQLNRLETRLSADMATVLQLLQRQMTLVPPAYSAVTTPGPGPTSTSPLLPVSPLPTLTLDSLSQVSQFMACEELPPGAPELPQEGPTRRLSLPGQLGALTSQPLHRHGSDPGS
From the text: This example is intended to assess the blocking effect of the compounds of the present disclosure and positive compound 1 (see the compound of Example 7 on page 125 of WO2019239319A1) on hERG potassium currents in a stable cell strain transfected with an hERG potassium channel by a manual patch-clamp assay. The structure of positive compound 1 is shown below:
The cells used in this experiment were from a CHO cell line (provided by Sophion Bioscience, Denmark) transfected with hERG cDNA and stably expressing hERG channel at cell passage number of P5. Cells were cultured in a medium containing the following components (all from Invitrogen): Ham's F12 medium, 10% (v/v) inactivated fetal bovine serum, 100 μg/mL hygromycin B, and 100 μg/mL geneticin.
CHO hERG cells were grown in a culture dish containing the above culture medium and cultured in an incubator at 37° C. with 5% CO2. 24-48 h before the electrophysiological experiment, CHO hERG cells were transferred to round slides placed in the culture dish and grown in the same culture medium and culture conditions as above. The density of CHO hERG cells on each round slide was required to achieve the requirement that most cells were independent and individual.
In this experiment, a manual patch-clamp system (HEKA EPC-10 signal amplifier and digital conversion system, purchased from HEKA Electronics, Germany) was used for whole cell current recording. Round slides with CHO hERG cells grown on the surface were placed in an electrophysiological recording chamber under an inverted microscope. The chamber was continuously perfused with extracellular fluid (approximately 1 mL/min). The experimental procedures were performed by conventional whole-cell patch-clamp current recording technology. Unless otherwise stated, the experiment was performed at room temperature ([…]). The cells were clamped at a voltage of −80 mV. The cell clamp voltage was depolarized to +20 mV to activate the hERG potassium channel, and then clamped to −50 mV 5 s later to eliminate inactivation and generate tail currents. The tail current peak was used as a value for the numeral value of the hERG current. After the hERG potassium currents recorded in the above step were stable under the continuous extracellular fluid perfusion in the recording chamber, the drug to be tested could be added for perfusion until the inhibitory effect of the drug on the hERG current reached a stable state. Generally, the last superposition of 3 consecutive current recording lines is used as a criterion for determining whether a stable state is reached. […]
The experimental data were analyzed by data analysis software supplied by HEKA Patchmaster(V2x73.2), Microsoft Excel, and Graphpad Prism 5.0. […]

Sequence of CYP2C19 (P33261 whole entry): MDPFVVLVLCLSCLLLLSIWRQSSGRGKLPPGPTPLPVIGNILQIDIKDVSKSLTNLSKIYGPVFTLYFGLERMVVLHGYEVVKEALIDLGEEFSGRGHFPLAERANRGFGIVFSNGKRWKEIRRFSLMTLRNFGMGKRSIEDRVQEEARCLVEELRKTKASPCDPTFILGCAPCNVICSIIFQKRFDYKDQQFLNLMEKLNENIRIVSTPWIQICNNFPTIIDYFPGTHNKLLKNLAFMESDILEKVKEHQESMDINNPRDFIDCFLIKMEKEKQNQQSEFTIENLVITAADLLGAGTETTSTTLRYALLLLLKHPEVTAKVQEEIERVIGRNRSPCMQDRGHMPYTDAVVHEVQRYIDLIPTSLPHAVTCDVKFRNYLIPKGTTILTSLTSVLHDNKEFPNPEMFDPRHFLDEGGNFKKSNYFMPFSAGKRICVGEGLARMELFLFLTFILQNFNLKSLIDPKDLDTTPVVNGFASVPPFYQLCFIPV

IC50 (CYP2C19) [µM]	IC50 (CYP1A2) [µM]	IC50 (CYP3A4M) [µM]	Structure (SMILES)	pIC50 (hERG potassium channel)
> 30	> 30	> 30	O=C(O)c1ccc2nc(CN3CCC(c4cccc5c4O[C@@H](c4ccc(Cl)cc4F)CO5)CC3)n(C[C@@H]3CCO3)c2n1 [Example 5, 2-((4-((S)-3-(4-Chloro-2-fluorophenyl)-2,3-dihydrobenzo[b][1,4]dioxan-5-yl)piperidin-1-yl)methyl)-3-((S)-oxetan-2-ylmethyl)-3H-imidazo[4,5-b]pyridine-5-carboxylic acid]	4.59
> 30	> 30	> 30	O=C(O)c1ccc2nc(CN3CCC(c4cccc5c4O[C@@H](c4ccc(Cl)cc4F)CO5)CC3)n(C[C@@H]3CCO3)c2c1 [Example 4, 2-((4-((S)-3-(4-Chloro-2-fluorophenyl)-2,3-dihydrobenzo[b][1,4]dioxan-5-yl)piperidin-1-yl)methyl)-1-(((S)-oxetan-2-yl)methyl)-1H-benzo[d]imidazole-6-carboxylic acid]	5.00
7.4	12.5	25.5	C[C@]1(c2ccc(Cl)cc2F)Oc2cccc(C3CCN(Cc4nc5ccc(C(=O)O)cc5n4C[C@@H]4CCO4)CC3)c2O1 [Positive compound 1, reference compound]	5.34
